Measured values reported in patent US20120328696A1, “ANTI-PARKINSONIAN COMPOUND ACETYLSALICYLIC ACID MALTOL ESTER” (Hutecs Korea Pharmaceutical Co., Ltd., priority 2008, published 2012).

Key:
Type in all cases: in vivo
tyrosine hydroxylase = assay: Striatal and nigral TH-like immunoreactivity after MA (immunocytochemistry); settings: p.o., AME 50, EBS 20, rottlerin 20 mg/kg, MA 8 mg/kg i.p. x4, GPx-1 (+/+) and (−/−) mice; for effect on MA-induced reduction in striatal TH-IR: striatum; for effect on MA-induced nigral reduction in TH-IR: substantia nigra pars compacta
Protocol: (§1) The mice received four times of MA (8 mg/kg, ip) or saline as a 2 hr-time interval. Chemicals (AME, EBS, and PKC inhibitors) were administrated for 5 consecutive days (twice daily), and were given 2 times at 4 hr and 30 min before the first MA injection as shown in the experimental schedule. Animals were sacrificed at 4 hrs and 3 days after the final MA administration.
Animals were sacrificed at 4 hours and 3 days after the last MA injection. They were anesthetized with 60% urethane and perfused transcardially with 50 ml of 50 mM phosphate buffered saline (PBS), followed by 50 ml of a mixture of 4% paraformaldehyde in PBS. The rate of perfusion was 50 ml/min. The brains were removed, post-fixed at 4° C. for 24 h in the same fixative and then cryoprotected in 30% sucrose in PBS. The brains were cut on a horizontal sliding microstome into 40 μm transverse free-floading sections (Kim et al., 1999).
The immunocytochemistry was performed as described previously (Kim et al., 2000a, b). Briefly, prior to incubation with the primary antibodies, sections were preincubated with 0.3% hydrogen peroxide in PBS for 30 min (to block endogenous peroxidase activity), then in PBS containing 0.4% Triton X-100 for 20 min and 1% normal serum for 20 min. The sections were then incubated for 48 h at 4° C. in primary antibody against tyrosine hydroxylase (1:500, Chemicon, Termecula, Calif., USA), GPx1 (1:500, AbFrontier, Seoul, Korea), PKC (1:200, Santa Cruz biotechnology INC, CA, USA) or F4/80 (1:50, Serotec, Raleigh, N.C., USA). The sections were further incubated with secondary biotinylated antisera (1:1000 dilution; Vector, Brulingame, Calif.) for 1 hr, and immersed in avidin-biotin-peroxidase complex (ABC Elite kit, Vector) for 1 hr. Sections were always washed three times with PBS (pH 7.4) between each incubation step. 3,3′-diaminobenzidine (DAB) was used as a chromogen.

cleaved PKCδ = assay: Striatal cleaved PKCδ expression after MA (western blot); settings: MA 8 mg/kg i.p. x4, GPx-1 (+/+) and (−/−) mice; for effect on MA-induced striatal cleaved PKCδ expression: p.o., AME 25 or 50, EBS 10 or 20, rottlerin 10 or 20 mg/kg
Protocol: as §1
Tissues were homogenized in lysis buffer, containing 200 mM Tris HCl (pH 6.8), 1% SDS, 5 mM EGTA (ethylene glycol tetraacetic acid), 5 mM EDTA (ethylenediaminetetraacetic acid), 10% glycerol, 1× phosphatase inhibitor cocktail I, 1× protease inhibitor cocktail. Lysate was centrifuged at 12,000×g for 30 min and supernatant fraction was used for Western blot analysis. […] And then, membranes were incubated with HRP-conjugated secondary anti-rabbit IgG (1:1000, GE healthcare, Piscataway, N.J., USA), anti-mouse IgG (1:1000, Sigma) or anti-goat IgG (1:1000, Sigma) for 2 h. Subsequent visualization was performed using enhanced chemiluminescence system (ECL Plus®, GE healthcare).

cyclooxygenase (COX)-2 = assay: COX-2 expression after MA (western blot); settings: p.o.; AME 50, EBS 20, rottlerin 20 mg/kg; MA 8 mg/kg i.p. x4; GPx-1 (+/+) and (−/−) mice
Protocol: as §1
(§2) The western blot assays was performed as described previously (Kim et al., 2003). Tissues were homogenized in lysis buffer, containing 200 mM Tris HCl (pH 6.8), 1% SDS, 5 mM EGTA (ethylene glycol tetraacetic acid), 5 mM EDTA (ethylenediaminetetraacetic acid), 10% glycerol, 1× phosphatase inhibitor cocktail I, 1× protease inhibitor cocktail. Lysate was centrifuged at 12,000×g for 30 min and supernatant fraction was used for Western blot analysis. Proteins (20-50 ug/lane) were separated by 6%, 8%, 10% or 15% sodium dodecyl sulfate-polyacrylamide gel electrophoresis and transferred onto the PVDF membranes. Following transfer, the membranes were preincubated with 5% non-fat milk and incubated overnight at 4° C. with primary antibody against β-actin (1:50000, Sigma, St. Louis, Mo., USA), TH (1:5000, Chemicon), TH phosphor-Ser 19 (1:1000, Chemicon,), TH phosphor-Ser 31 (1:500, Chemicon), TH phosphor-Ser 40 (1:500, Chemicon), F4/80 (1:500, Serotec), GPx1 (1:2500, AbFrontier), PKC (1:5000, Santa Cruz biotechnology, Santa Cruz, Calif., USA), p53 (1:5000, Cell signaling, Beverly, Mass., USA), MDM2 (1:1000, BD Pharmingen, San Jose, Calif., USA), MDM2 phospho-Ser 166 (1:1000, cell signaling), BDNF (1:500, Chemicon), GDNF (1:250, Santa Cruz), COX-2 (1:2000, Cayman, Ann Arbor, MC, USA), IL-6 (1:2000, Abcam, Cambridge, Mass., USA), TNF-a (1:1000, R&D Systems, Mckinley place NE, NM, USA), IFN-γ (1:500, Chemicon) or Iba-1 (1:500, Wako, Osaka, Japan). And then, membranes were incubated with HRP-conjugated secondary anti-rabbit IgG (1:1000, GE healthcare, Piscataway, N.J., USA), anti-mouse IgG (1:1000, Sigma) or anti-goat IgG (1:1000, Sigma) for 2 h. […]

p53 = assay: Striatal p53 expression after MA (western blot); settings: p.o.; AME 50, EBS 20, rottlerin 20 mg/kg; MA 8 mg/kg i.p. x4; GPx-1 (+/+) and (−/−) mice
Protocol: as §1, §2

SMILES	effect on MA-induced reduction in striatal TH-IR (tyrosine hydroxylase)	effect on MA-induced nigral reduction in TH-IR (tyrosine hydroxylase)	effect on MA-induced striatal cleaved PKCδ expression (cleaved PKCδ)	effect on MA-induced increase in COX-2 expression (cyclooxygenase (COX)-2)	effect on MA-induced increase in striatal p53 expression (p53)	effect on MA-induced increase in striatal cleaved PKCδ expression (cleaved PKCδ; intra-striatal)
CC(=O)Oc1ccccc1C(=O)Oc1c(C)occc1=O [AME, 3-(2-methyl-4-pyronyl)-2-acetyloxybenzoate]	attenuated this reduction in striatal TH-IR	significantly attenuated MA-induced nigral reduction in TH-IR	significantly reduced MA-induced the PKCδ- and cleaved PKCδ-expressions in a dose-related manner	significantly and consistently attenuating effects	significantly inhibited MA-induced increase in p53 expression	
O=c1c2ccccc2[se]n1-c1ccccc1 [EBS, 2-phenyl-1,2-benzisoselenazol-3(2H)-one]	attenuated this reduction in striatal TH-IR	significantly attenuated MA-induced nigral reduction in TH-IR	significantly reduced MA-induced the PKCδ- and cleaved PKCδ-expressions in a dose-related manner	significantly and consistently attenuating effects	significantly inhibited MA-induced increase in p53 expression	
CC(=O)c1c(O)c(C)c(O)c(Cc2c(O)c3c(c(C(=O)/C=C/c4ccccc4)c2O)OC(C)(C)C=C3)c1O [rottlerin]	attenuated this reduction in striatal TH-IR	significantly attenuated MA-induced nigral reduction in TH-IR	significantly reduced MA-induced the PKCδ- and cleaved PKCδ-expressions in a dose-related manner	significantly and consistently attenuating effects	significantly inhibited MA-induced increase in p53 expression	attenuated the MA-induced increases in PKCδ expressions in a dose-dependent manner
